Assay results taken from patent publication US10258041B2, “Substituted pyrazolylpyrazole derivative and use of same as herbicide” (KYOYU AGRI CO., LTD., priority 2015, dated 2019).

Key:
Type in all cases: in vivo
[1] = system: Chenopodium album; experiment: Weed foliar treatment test (Test 3); details: foliar spray at 1.0 to 2.0 leaf stage of Digitaria ciliaris, 3 weeks, 25° C.
Method: (§1) Evaluation of herbicidal efficacy was carried out by comparing growth inhibition rate (%) with an untreated group, while evaluation of chemical damage was carried out by comparing growth inhibition rate (%) with the state of a complete eradication group, and were evaluated at 11 levels indicated below. • 0 (exponent): 0% to less than 10% (growth inhibition rate) • 1: 10% to less than 20% • 2: 20% to less than 30% • 3: 30% to less than 40% • 4: 40% to less than 50% • 5: 50% to less than 60% • 6: 60% to less than 70% • 7: 70% to less than 80% • 8: 80% to less than 90% • 9: 90% to less than 100% • 10: 100% Soil was filled into a 1/6000 are pot followed by seeding with Digitaria ciliaris, Chenopodium album and Amaranthus retroflexus, covering with soil, and cultivating in a glass greenhouse at an average atmospheric temperature of 25° C. Wettable powders of Target Compound (I) shown in Table 1 prepared in compliance with the preparation examples were diluted with water to the prescribed amount of chemical and uniformly sprayed onto the weeds using 150 liters of sprayed water per 10 are when Digitaria ciliaris had grown to the 1.0 to 2.0 leaf stage. After treating for 3 weeks in a glass greenhouse at an average atmospheric temperature of 25° C., the herbicidal efficacy thereof was investigated. Evaluation of herbicidal efficacy was carried out in the same manner as the above-mentioned Test Example 1.

[2] = system: Amaranthus retroflexus; experiment: Weed foliar treatment test (Test 3); details: foliar spray at 1.0 to 2.0 leaf stage of Digitaria ciliaris, 3 weeks, 25° C.
Method: as §1

[3] = system: Digitaria ciliaris; experiment: Weed foliar treatment test (Test 3); details: foliar spray at 1.0 to 2.0 leaf stage of Digitaria ciliaris, 3 weeks, 25° C.
Method: as §1

[4] = system: Chenopodium album; experiment: Farming soil treatment test; details: soil surface spray prior to weed growth, 30 days, 30° C.
Method: (§2) Evaluation of herbicidal efficacy was carried out by comparing growth inhibition rate (%) with an untreated group, while evaluation of chemical damage was carried out by comparing growth inhibition rate (%) with the state of a complete eradication group, and were evaluated at 11 levels indicated below. • 0 (exponent): 0% to less than 10% (growth inhibition rate) • 1: 10% to less than 20% • 2: 20% to less than 30% • 3: 30% to less than 40% • 4: 40% to less than 50% • 5: 50% to less than 60% • 6: 60% to less than 70% • 7: 70% to less than 80% • 8: 80% to less than 90% • 9: 90% to less than 100% • 10: 100% Field soil was filled into a 1/6000 are pot followed by seeding with Digitaria ciliaris, Chenopodium album and Amraranthus retroflexus and covering with soil. Wettable powders of compounds of formula (I) shown in Table 1 prepared in compliance with the preparation examples were diluted with water to the prescribed amount of chemical and uniformly sprayed onto each soil surface layer using 100 liters of sprayed water per 10 are prior to weed growth following seeding. After treating for 30 days in a glass greenhouse at an average atmospheric temperature of 30° C., the herbicidal efficacy thereof was investigated. Evaluation of herbicidal efficacy was carried out in the same manner as the above-mentioned Test Example 1,

[5] = system: Amaranthus retroflexus; experiment: Farming soil treatment test; details: soil surface spray prior to weed growth, 30 days, 30° C.
Method: as §2

[6] = system: Digitaria ciliaris; experiment: Farming soil treatment test; details: soil surface spray prior to weed growth, 30 days, 30° C.
Method: as §2

[7] = system: Digitaria ciliaris; experiment: Weed foliar treatment test (Test 4, higher leaf stage); details: 10 g a.i./10a; foliar spray at 4.0 to 5.0 leaf stage of Digitaria ciliaris (plant height 10 cm to 15 cm); 20 days, 25° C.
Method: (§3) Evaluation of herbicidal efficacy was carried out by comparing growth inhibition rate (%) with an untreated group, while evaluation of chemical damage was carried out by comparing growth inhibition rate (%) with the state of a complete eradication group, and were evaluated at 11 levels indicated below. • 0 (exponent): 0% to less than 10% (growth inhibition rate) • 1: 10% to less than 20% • 2: 20% to less than 30% • 3: 30% to less than 40% • 4: 40% to less than 50% • 5: 50% to less than 60% • 6: 60% to less than 70% • 7: 70% to less than 80% • 8: 80% to less than 90% • 9: 90% to less than 100% • 10: 100% Field soil was filled into a 1/4500 are pot followed by seeding with Digitaria ciliaris and Galinsoga parviflora, covering with soil and cultivating in a glass greenhouse at an average atmospheric temperature of 25° C. Wettable powders of Target Compound (I) shown, in Table 1 prepared in compliance with the preparation examples were diluted with water to the prescribed amount of chemical and uniformly sprayed onto the weeds using 100 liters of sprayed water per 10 are when Digitaria ciliaris had grown to the 4.0 to 5.0 leaf stage (plant height: 10 cm to 15 cm). After treating for 20 days in a glass greenhouse at an average atmospheric temperature of 25° C., the herbicidal efficacy thereof was investigated. Evaluation of herbicidal efficacy was carried out in the same manner as the above-mentioned Test Example 1.

[8] = system: Galinsoga parviflora; experiment: as above; details: 10 g a.i./10a; foliar spray at 4.0 to 5.0 leaf stage of Digitaria ciliaris; 20 days, 25° C.
Method: as §3

[9] = system: Monochoria vaginalis; experiment: Paddy herbicidal activity test; details: irrigated pot, treated at 3.5 leaf stage of Echinochloa crus-galli, 30 days
Method: (§4) Rice paddy soil was filled into a 1/10000 are pot followed by the addition of suitable amounts of water and chemical fertilizer, kneading, seeding with Echinochloa crus-galli, Monochoria vaginalis and Scirpus juncoides and maintaining in an irrigated state at a water depth of 3 cm. Wettable powders of Target Compound (I) shown in Table 1 prepared in compliance with the preparation examples were diluted with a suitable amount of water, rice plants in the 2.0 leaf stage were transplanted during 3.5 leaf stage of Echinochloa crus-galli, and treated by dropping in chemical in the prescribed amount per 10 are using a pipette. After treating for 30 days in a glass greenhouse at an average atmospheric temperature of […], the herbicidal efficacy thereof was investigated. Evaluation of herbicidal efficacy was carried out by comparing growth inhibition rate (%) with an untreated group, while evaluation of chemical damage was carried out by comparing growth inhibition rate (%) with the state of a complete eradication group, and were evaluated at 11 levels indicated below. • 0 (exponent): 0% to less than 10% (growth inhibition rate) • 1: 10% to less than 20% • 2: 20% to less than 30% • 3: 30% to less than 40% • 4: 40% to less than 50% • 5: 50% to less than 60% • 6: 60% to less than 70% • 7: 70% to less than 80% • 8: 80% to less than 90% • 9: 90% to less than 100% • 10: 100%

[10] = system: Scirpus juncoides; experiment: Paddy herbicidal activity test; details: irrigated pot, treated at 3.5 leaf stage of Echinochloa crus-galli, 30 days
Method: as §4

[11] = system: Echinochloa crus-galli; experiment: Paddy herbicidal activity test; details: irrigated pot, treated at 3.5 leaf stage of Echinochloa crus-galli, 30 days
Method: as §4

[12] = system: Oryza sativa; experiment: Paddy herbicidal activity test, chemical damage to transplanted rice; details: rice transplanted in 2.0 leaf stage, 30 days
Method: as §4

SMILES	herbicidal efficacy (growth inhibition rate level), Chenopodium album ([1]; 5 g a.i./10a)	herbicidal efficacy (growth inhibition rate level), Chenopodium album ([1]; 10 g a.i./10a)	herbicidal efficacy (growth inhibition rate level), Amaranthus retroflexus ([2]; 5 g a.i./10a)	herbicidal efficacy (growth inhibition rate level), Amaranthus retroflexus ([2]; 10 g a.i./10a)	herbicidal efficacy (growth inhibition rate level), Digitaria ciliaris ([3]; 5 g a.i./10a)	herbicidal efficacy (growth inhibition rate level), Digitaria ciliaris ([3]; 10 g a.i./10a)	herbicidal efficacy (growth inhibition rate level), Chenopodium album ([4]; 5 g a.i./10a)	herbicidal efficacy (growth inhibition rate level), Chenopodium album ([4]; 10 g a.i./10a)	herbicidal efficacy (growth inhibition rate level), Amaranthus retroflexus ([5]; 5 g a.i./10a)	herbicidal efficacy (growth inhibition rate level), Amaranthus retroflexus ([5]; 10 g a.i./10a)	herbicidal efficacy (growth inhibition rate level), Digitaria ciliaris ([6]; 5 g a.i./10a)	herbicidal efficacy (growth inhibition rate level), Digitaria ciliaris ([6]; 10 g a.i./10a)	herbicidal efficacy (growth inhibition rate level), Digitaria ciliaris [7]	herbicidal efficacy (growth inhibition rate level), Galinsoga parviflora [8]	herbicidal efficacy (growth inhibition rate level), Monochoria vaginalis ([9]; 1 g a.i./10a)	herbicidal efficacy (growth inhibition rate level), Monochoria vaginalis ([9]; 5 g a.i./10a)	herbicidal efficacy (growth inhibition rate level), Scirpus juncoides ([10]; 1 g a.i./10a)	herbicidal efficacy (growth inhibition rate level), Scirpus juncoides ([10]; 5 g a.i./10a)	herbicidal efficacy (growth inhibition rate level), Echinochloa crus-galli ([11]; 1 g a.i./10a)	herbicidal efficacy (growth inhibition rate level), Echinochloa crus-galli ([11]; 5 g a.i./10a)	also measured
N#Cc1cnn(-c2nn3c(c2Cl)CCCC3)c1NC(=O)CCl [Control Agent 1.9]	1 (1: 10% to less than 20%)	2 (2: 20% to less than 30%)	6 (6: 60% to less than 70%)	6 (6: 60% to less than 70%)	2 (2: 20% to less than 30%)	2 (2: 20% to less than 30%)	1 (1: 10% to less than 20%)	2 (2: 20% to less than 30%)	5 (5: 50% to less than 60%)	6 (6: 60% to less than 70%)	0 (0 (exponent): 0% to less than 10% (growth inhibition rate))	1 (1: 10% to less than 20%)	1 (1: 10% to less than 20%)	5 (5: 50% to less than 60%)	2 (2: 20% to less than 30%)	2 (2: 20% to less than 30%)	0 (0 (exponent): 0% to less than 10% (growth inhibition rate))	1 (1: 10% to less than 20%)	2 (2: 20% to less than 30%)	2 (2: 20% to less than 30%)	chemical damage (growth inhibition rate level), Oryza sativa ([12]; 1 g a.i./10a): 1 (1: 10% to less than 20%); chemical damage (growth inhibition rate level), Oryza sativa ([12]; 5 g a.i./10a): 1 (1: 10% to less than 20%)
N#Cc1cnn(-c2nn3c(c2Cl)CCCC3)c1NC(=O)CCCl [Control Agent 1.36]	4 (4: 40% to less than 50%)	4 (4: 40% to less than 50%)	5 (5: 50% to less than 60%)	6 (6: 60% to less than 70%)	2 (2: 20% to less than 30%)	3 (3: 30% to less than 40%)	4 (4: 40% to less than 50%)	4 (4: 40% to less than 50%)	4 (4: 40% to less than 50%)	5 (5: 50% to less than 60%)	3 (3: 30% to less than 40%)	4 (4: 40% to less than 50%)	1 (1: 10% to less than 20%)	5 (5: 50% to less than 60%)	3 (3: 30% to less than 40%)	4 (4: 40% to less than 50%)	1 (1: 10% to less than 20%)	3 (3: 30% to less than 40%)	2 (2: 20% to less than 30%)	4 (4: 40% to less than 50%)	chemical damage (growth inhibition rate level), Oryza sativa ([12]; 1 g a.i./10a): 2 (2: 20% to less than 30%); chemical damage (growth inhibition rate level), Oryza sativa ([12]; 5 g a.i./10a): 3 (3: 30% to less than 40%)
N#Cc1cnn(-c2nn3c(c2Cl)CCCC3)c1NC(=O)CCCCl [Control Agent 1.37]	4 (4: 40% to less than 50%)	5 (5: 50% to less than 60%)	6 (6: 60% to less than 70%)	7 (7: 70% to less than 80%)	3 (3: 30% to less than 40%)	4 (4: 40% to less than 50%)	4 (4: 40% to less than 50%)	5 (5: 50% to less than 60%)	5 (5: 50% to less than 60%)	6 (6: 60% to less than 70%)	3 (3: 30% to less than 40%)	4 (4: 40% to less than 50%)	2 (2: 20% to less than 30%)	4 (4: 40% to less than 50%)	2 (2: 20% to less than 30%)	4 (4: 40% to less than 50%)	1 (1: 10% to less than 20%)	2 (2: 20% to less than 30%)	3 (3: 30% to less than 40%)	3 (3: 30% to less than 40%)	chemical damage (growth inhibition rate level), Oryza sativa ([12]; 1 g a.i./10a): 2 (2: 20% to less than 30%); chemical damage (growth inhibition rate level), Oryza sativa ([12]; 5 g a.i./10a): 2 (2: 20% to less than 30%)
